Laboratory results taken from the supplement of paper PMC4862054.

Columns and labels:
Conditions in all cases: incubation time: 72 h
Hs578T [1] = experiment: normalised response (% of control), CellTiter-Glo; higher = more viable cells (100 = DMSO, 0 = benzethonium chloride kill control)
Experimental: (§1)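 DSRT, 72 h incubation, CellTox Green / CellTiter-Glo readout. Signal is normalised to DMSO and benzethonium chloride controls. Value is the normalised response at dose 3.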

MDA-MB-436 [2] = experiment: as above
Experimental: as §1

MDA-MB-468 [3] = experiment: as above
Experimental: as §1

DU-4475 [4] = experiment: as above
Experimental: as §1

HDQ-P1 [5] = experiment: as above
Experimental: as §1

CAL-85-1 [6] = experiment: as above
Experimental: as §1

MFM-223 [7] = experiment: as above
Experimental: as §1

CAL-120 [8] = experiment: as above
Experimental: as §1

BT-549 [9] = experiment: as above
Experimental: as §1

BT-474 [10] = experiment: as above
Experimental: as §1

MDA-MB-453 [11] = experiment: as above
Experimental: as §1

MDA-MB-231 [12] = experiment: as above
Experimental: as §1

MCF-10A [13] = experiment: as above
Experimental: as §1

HCC1599 [14] = experiment: as above
Experimental: as §1

SK-BR-3 = experiment: as above
Experimental: as §1

CAL-148 [15] = experiment: as above
Experimental: as §1

CAL-51 [16] = experiment: as above
Experimental: as §1

HCC1937 [17] = experiment: as above
Experimental: as §1

HCC1143 [18] = experiment: as above
Experimental: as §1

Hs578T [19] = experiment: normalised response (% of control), CellTox Green; higher = less cell death (100 = DMSO, 0 = benzethonium chloride kill control)
Method in brief: (§2)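 A 20 µl suspension of breast cancer cells was seeded into each well of 384-well plates containing compound at 5 concentrations in 10-fold steps over a compound-specific 10,000-fold range. After 72 h incubation, CellTox Green fluorescence (485/520 nm) was read first, and CellTiter-Glo luminescence was read after 10 min at room temperature. Each plate was normalised against 0.1 % DMSO (100) and a positive kill control (0), and each value is the normalised signal at one concentration.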

MDA-MB-436 [20] = experiment: as above
Method in brief: as §2

MDA-MB-468 [21] = experiment: as above
Method in brief: as §2

DU-4475 [22] = experiment: as above
Method in brief: as §2

HDQ-P1 [23] = experiment: as above
Method in brief: as §2

CAL-85-1 [24] = experiment: as above
Method in brief: as §2

CAL-120 [25] = experiment: as above
Method in brief: as §2

BT-549 [26] = experiment: as above
Method in brief: as §2

BT-474 [27] = experiment: as above
Method in brief: as §2

MDA-MB-453 [28] = experiment: as above
Method in brief: as §2

MDA-MB-231 [29] = experiment: as above
Method in brief: as §2

MCF-10A [30] = experiment: as above
Method in brief: as §2

HCC1599 [31] = experiment: as above
Method in brief: as §2

CAL-148 [32] = experiment: as above
Method in brief: as §2

CAL-51 [33] = experiment: as above
Method in brief: as §2

HCC1937 [34] = experiment: as above
Method in brief: as §2

HCC1143 [35] = experiment: as above
Method in brief: as §2

MFM-223 [36] = experiment: as above
Method in brief: as §2

SMILES | normalised response (Hs578T [1]) [%] | normalised response (MDA-MB-436 [2]) [%] | normalised response (MDA-MB-468 [3]) [%] | normalised response (DU-4475 [4]) [%] | normalised response (HDQ-P1 [5]) [%] | normalised response (CAL-85-1 [6]) [%] | normalised response (MFM-223 [7]) [%] | normalised response (CAL-120 [8]) [%] | normalised response (BT-549 [9]) [%] | normalised response (BT-474 [10]) [%] | normalised response (MDA-MB-453 [11]) [%] | normalised response (MDA-MB-231 [12]) [%] | normalised response (MCF-10A [13]) [%] | normalised response (HCC1599 [14]) [%] | normalised response (SK-BR-3) [%] | normalised response (CAL-148 [15]) [%] | normalised response (CAL-51 [16]) [%] | normalised response (HCC1937 [17]) [%] | normalised response (HCC1143 [18]) [%] | normalised response (Hs578T [19]) [%] | normalised response (MDA-MB-436 [20]) [%] | normalised response (MDA-MB-468 [21]) [%] | normalised response (DU-4475 [22]) [%] | normalised response (HDQ-P1 [23]) [%] | normalised response (CAL-85-1 [24]) [%] | normalised response (CAL-120 [25]) [%] | normalised response (BT-549 [26]) [%] | normalised response (BT-474 [27]) [%] | normalised response (MDA-MB-453 [28]) [%] | normalised response (MDA-MB-231 [29]) [%] | normalised response (MCF-10A [30]) [%] | normalised response (HCC1599 [31]) [%] | normalised response (CAL-148 [32]) [%] | normalised response (CAL-51 [33]) [%] | normalised response (HCC1937 [34]) [%] | normalised response (HCC1143 [35]) [%] | normalised response (MFM-223 [36]) [%]
Cc1cc2c(F)c(Oc3ncnn4cc(OC[C@@H](C)O)c(C)c34)ccc2[nH]1 [Brivanib] (10 nM) | 102 | 112 | 105 | 99.6 | 99.5 | 102 | 108 | 100 | 100 | 105 | 102 | 111 | 113 | 104 | 115 | 108 | 106 | 101 | 105 | 88.4 | 96 | 91.2 | 104 | 72.3 | 106 | 98 | 60.1 | 99.8 | 109 | 111 | 89.7 | 104 | 103 | 108 | 82 | 111 | –
Nc1nc(Cl)nc2c1ncn2[C@@H]1O[C@H](CO)[C@@H](O)[C@@H]1F [Clofarabine] (100 nM) | 98.6 | 90.3 | 94.3 | 99.4 | 98.5 | 93.2 | 104 | 93.8 | 79.5 | 82.3 | 105 | 83.9 | 109 | 76.2 | 82.6 | 96.2 | 76 | 84.1 | 96.4 | 90.3 | 102 | – | 114 | 100 | 113 | 107 | 102 | 104 | 106 | 106 | 99.3 | 103 | 92.7 | 86 | 62.3 | 105 | 99.3
CCN(CC)CCOc1ccc(C(=C(Cl)c2ccccc2)c2ccccc2)cc1 [Clomifene] (100 nM) | 113 | 98.5 | 94.1 | 103 | 99 | 101 | 104 | 103 | 103 | 105 | 103 | 106 | 95.2 | 87.8 | 104 | 109 | 102 | 101 | 102 | 75.9 | – | 91.3 | 100 | 97.7 | 106 | 102 | 105 | 96.8 | 104 | 106 | 104 | 98.5 | 96.2 | 112 | 59.1 | 112 | 102
NC1(c2ccc(-c3nc4ccn5c(=O)[nH]nc5c4cc3-c3ccccc3)cc2)CCC1 [MK-2206] (10 nM) | 102 | 102 | 102 | 102 | 95.5 | 99.8 | 104 | 102 | 107 | 102 | 88.5 | 108 | 110 | 84.7 | 93.8 | 107 | 74.5 | 96.5 | 104 | 96.1 | 95.6 | 139 | 103 | 114 | 95.4 | 103 | 86.6 | 99 | 110 | 115 | 111 | 118 | – | 83.6 | 81.7 | 110 | 104
NC(=O)c1cccc2cn(-c3ccc([C@@H]4CCCNC4)cc3)nc12 [MK-4827] (100 nM) | 95.1 | 95.8 | 94.7 | 99.8 | 101 | 101 | 107 | 105 | 91.6 | 109 | 99.4 | 106 | 110 | 90 | 104 | 112 | 90.9 | 102 | 107 | 116 | – | 136 | 101 | 78 | 102 | 102 | – | 88.2 | 91.6 | 107 | 84.8 | 115 | 104 | 89.4 | 111 | 110 | 82.5
O=C(c1cc(Cc2n[nH]c(=O)c3ccccc23)ccc1F)N1CCN(C(=O)C2CC2)CC1 [Olaparib] (100 nM) | 97.7 | 91.3 | 105 | 95.8 | 96.8 | 102 | 99.2 | 91.4 | 100 | 96.5 | 107 | 93.8 | 101 | 103 | 88.8 | 98.5 | 66.4 | 96 | 94.4 | 110 | 88.4 | – | 101 | 101 | 103 | 95 | 105 | 96.5 | 103 | 97.4 | 98.9 | 101 | 79.6 | 81.9 | 94.9 | 110 | 103
CN1CCN(c2nc(C3=C(c4c[nH]c5ccccc45)C(=O)NC3=O)c3ccccc3n2)CC1 [Sotrastaurin] (100 nM) | 97.5 | 98.9 | 99.3 | 94.3 | 96.1 | 102 | 92.1 | 98.1 | 98.7 | 98.2 | 95.6 | 102 | 87.5 | 99.1 | 100 | 97.2 | 112 | 97.8 | 98.8 | 93.3 | 96.6 | 162 | 99.6 | 101 | 113 | 83.6 | 99.3 | 102 | 97.8 | 67 | 91.4 | 97.2 | 98.4 | 98 | 64.6 | 76.4 | –
COc1cc2c(N3CCN(C(=O)Nc4ccc(OC(C)C)cc4)CC3)ncnc2cc1OCCCN1CCCCC1 [Tandutinib] (10 nM) | 101 | 106 | 103 | 97.1 | 99.7 | 109 | 100 | 100 | 104 | 98.9 | 96.3 | 103 | 97.8 | 106 | 100 | 102 | 69.2 | 97.4 | 98.1 | 69.4 | 101 | 63.1 | 98 | 90.3 | 99 | 87.9 | 98.8 | 84.8 | 90.3 | 99.9 | 104 | 96.8 | – | 95 | 81.3 | 86.5 | 78.6
CN1CCc2c(c3ccccc3n2Cc2ccc(C(=O)NO)cc2)C1 [Tubastatin A] (100 nM) | 102 | 93.1 | 95.3 | 102 | 95.4 | 98.2 | 96.9 | 98.1 | 103 | 96.8 | 96.3 | 99.9 | 102 | 99.2 | 97.5 | 106 | 91.8 | 101 | 104 | 110 | 109 | – | 104 | 101 | 102 | 103 | 86.2 | 101 | 107 | 116 | 101 | 99.9 | 99.3 | 105 | 92.5 | 105 | 93.8
